What was measured:
[1] = system: Cys residues in primary human T cells; assay: isoTOP-ABPP of compound-treated primary human T cells; type: cell-based; settings: MMF 50 μM 4 h; BSO 2.5 mM 4 h
[2] = system: primary human T cells; assay: T cell activation markers CD25 and CD69 (flow cytometry); type: cell-based; settings: 2.5 mM, 8 h
Protocol: 96-well plates were coated with anti-CD3 (1:200; BioXcell) and anti-CD28 (1:500; 302933; BioLegend) in PBS (100 μL/well) overnight at 4° C. The plates were then washed twice with PBS and to each well was added 500,000 primary T cells in 100 μL of RPMI supplemented with 10% FBS, glutamine, and Pen-Strep. Cells were then treated with 100 μL of media containing compound at the indicated concentrations (final well volume of 200 μL). Cells were left at 37° C. in a 5% CO2 incubator for the indicated periods of time and harvested by centrifugation (500 g, 8 min, 4° C.), followed by washing with PBS.
Flow cytometry analysis of cell surface antigens was performed with the following antibodies: Pacific Blue-conjugated anti-CD8 (1:25 dilution; clone RPA-T8; BD Biosciences), APC-conjugated anti-CD4 (1:25 dilution; clone RPA-T4; eBioscience), phycoerythrin-conjugated anti-CD25 (1:25 dilution; clone BC96; eBioscience or PC61; BioLegend (PKCθ studies)), FITC-conjugated anti-CD69 (1:25 dilution; clone FN50; eBioscience). All antibodies were diluted in 1% FBS in PBS, and 50 μL of the stain solution was added to each well. […] Flow cytometry acquisition was performed with BD FACSDivam-driven BD™ LSR II flow cytometer (Becton, Dickinson and Company). Data was then analyzed with FlowJo software (Treestar Inc.). Data represent mean±SE for four-five experiments per group.

[3] = system: intracellular GSH in primary human T cells; assay: Quantification of cellular glutathione (GSH) levels; type: cell-based; settings: DMF 50 μM 2 h; BSO 2.5 mM 4 h
Protocol: Primary human T cells (2.5 million cells/mL, 20 mL per condition) were treated as indicated, harvested by centrifugation (500 g, 8 min, 4° C.), and washed twice with PBS. To the cell pellet was added 75 μL of lysis buffer. […] Protein concentrations were adjusted to at least 5 mg/mL and the assay performed according to manufacturer's instructions (Sigma-Aldrich, CS 1020). Data represent mean±SE for two biological replicates.

[4] = target: T1, MLTK (ZAK) C22 (Homo sapiens, UniProt Q9NYL2); assay: Blockade of ibrutinib-derived probe 59 labeling of MLTK (gel-based ABPP); type: binding; settings: read-out: IC50 for blockade of ibrutinib probe 59 labeling of MLTK; recombinant MLTK in HEK293T lysate
T1 construct: expressed in transfected cells
Protocol: CuAAC was performed with 20 μM rhodamine-azide (50× stock in DMSO), 1 mM tris(2-carboxyethyl)phosphine hydrochloride (TCEP; fresh 50× stock in water, final concentration=1 mM), ligand (17× stock in DMSO:t-butanol 1:4, final concentration=100 μM) and 1 mM CuSO4 (50× stock in water, final concentration=1 mM). […] Quenched reactions were analyzed by SDS-PAGE and visualized by in-gel fluorescence. […] For MLTK, HEK 293T cells stably overexpressing MTLK^2 were treated with the indicated fragment electrophiles for 1 h, followed by labeling with 59 (1 μl, of 125 μM, final concentration=5 μM) for 1 h. These were followed by CuAAC conjugation to rhodamine-azide and evaluation by SDS-PAGE as described above.

[5] = target: T2, MLTK (Homo sapiens, UniProt Q9NYL2); assay: MLTK in vitro kinase activity assay; type: biochemical; settings: WT-MLTK, 100 μM fragment
T2 construct: expressed in transfected cells
Protocol: (§1) The kinase activity assay protocol was conducted as described in Wang et al. ACS Chemical biology 9:2194-2198 (2014). Kinase assay buffers, myelin basic protein (MBP) substrate and ATP stock solution were purchased from SignalChem. Radio-labeled [γ-^33P] ATP was purchased from PerkinElmer. 250 μL of HEK-293T soluble lysates (8 mg/mL), stably overexpressing WT, C22A or K45M MLTK were labeled for 1 h with 100 μM fragment or DMSO. The samples were then individually immunoprecipitated with 20 μL flag resin slurry per sample and then eluted with 15 μL 3×Flag-peptide. To each sample was added 5 μL of MBP and then 5 μL of [γ-^33P] ATP assay cocktail (250 μM, 167 μCi/mL) was added to initiate the kinase reaction. Each reaction mixture was incubated at ambient temperature for 30 min, and the reactions were terminated by spotting 25 μL of the reaction mixture onto individual precut phosphocellulose P81 paper. The spotted P81 strips were washed with 10 mL of 1% phosphoric acid (3×10 min). MLTK activity was measured by counting the radioactivity on the P81 paper in the presence of scintillation fluid in a scintillation counter. […] Relative activities for WT and C22A were normalized to their respective DMSO treated samples. Experiments were performed in triplicate.

[6] = target: T3, MLTK (Homo sapiens, UniProt Q9NYL2, C22A); assay: MLTK in vitro kinase activity assay; type: biochemical; settings: C22A-MLTK, 100 μM fragment
T3 construct: expressed in transfected cells
Protocol: as §1

T3 sequence (Q9NYL2 whole entry C22A, the tested form may be a part): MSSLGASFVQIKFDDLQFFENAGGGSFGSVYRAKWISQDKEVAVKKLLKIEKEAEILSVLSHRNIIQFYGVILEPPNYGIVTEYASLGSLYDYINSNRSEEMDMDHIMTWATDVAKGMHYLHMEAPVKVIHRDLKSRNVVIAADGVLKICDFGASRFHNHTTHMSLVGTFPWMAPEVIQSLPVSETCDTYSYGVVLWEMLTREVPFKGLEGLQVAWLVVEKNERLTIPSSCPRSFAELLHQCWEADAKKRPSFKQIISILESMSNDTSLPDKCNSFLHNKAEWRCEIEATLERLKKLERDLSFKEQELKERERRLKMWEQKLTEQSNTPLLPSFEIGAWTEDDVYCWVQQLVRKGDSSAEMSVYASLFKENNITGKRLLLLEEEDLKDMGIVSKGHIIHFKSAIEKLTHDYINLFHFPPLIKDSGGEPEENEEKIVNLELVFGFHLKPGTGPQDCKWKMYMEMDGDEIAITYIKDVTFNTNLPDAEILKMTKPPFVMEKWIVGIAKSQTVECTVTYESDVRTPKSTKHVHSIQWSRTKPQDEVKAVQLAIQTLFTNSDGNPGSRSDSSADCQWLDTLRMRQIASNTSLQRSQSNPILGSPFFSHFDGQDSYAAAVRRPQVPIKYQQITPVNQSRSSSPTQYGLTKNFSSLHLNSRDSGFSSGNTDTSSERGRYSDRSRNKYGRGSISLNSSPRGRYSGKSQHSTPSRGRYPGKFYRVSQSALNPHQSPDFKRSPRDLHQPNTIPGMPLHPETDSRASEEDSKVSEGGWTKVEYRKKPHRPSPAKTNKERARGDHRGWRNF
T1 sequence (Q9NYL2 whole entry): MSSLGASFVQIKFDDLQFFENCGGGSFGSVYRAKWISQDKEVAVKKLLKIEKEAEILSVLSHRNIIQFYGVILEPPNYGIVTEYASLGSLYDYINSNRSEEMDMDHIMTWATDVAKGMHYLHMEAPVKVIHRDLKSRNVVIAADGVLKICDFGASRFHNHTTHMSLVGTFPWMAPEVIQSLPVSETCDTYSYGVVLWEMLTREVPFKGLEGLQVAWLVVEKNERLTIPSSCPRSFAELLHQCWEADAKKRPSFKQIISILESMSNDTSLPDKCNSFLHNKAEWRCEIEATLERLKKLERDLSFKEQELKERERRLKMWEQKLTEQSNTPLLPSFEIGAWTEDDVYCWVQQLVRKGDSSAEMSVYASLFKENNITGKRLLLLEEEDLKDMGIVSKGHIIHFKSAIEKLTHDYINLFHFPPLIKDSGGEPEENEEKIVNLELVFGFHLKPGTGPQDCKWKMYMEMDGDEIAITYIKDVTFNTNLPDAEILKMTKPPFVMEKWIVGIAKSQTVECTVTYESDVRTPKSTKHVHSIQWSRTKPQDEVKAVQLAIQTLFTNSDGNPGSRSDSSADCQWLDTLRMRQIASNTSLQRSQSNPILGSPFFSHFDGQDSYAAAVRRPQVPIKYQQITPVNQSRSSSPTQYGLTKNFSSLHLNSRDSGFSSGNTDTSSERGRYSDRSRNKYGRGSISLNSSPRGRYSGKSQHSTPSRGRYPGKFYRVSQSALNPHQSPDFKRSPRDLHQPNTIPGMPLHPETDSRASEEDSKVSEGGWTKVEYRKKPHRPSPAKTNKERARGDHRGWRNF
T2 sequence (Q9NYL2 whole entry, the tested form may be a part): as the sequence (Q9NYL2 whole entry) above

`CCCCS(=N)(=O)CCC(N)C(=O)O` (stereo not drawn) [BSO, buthionine sulfoximine] was tested, and the “alteration of the ~40 DMF-sensitive Cys residues” value [1] was “none”, the “T cell activation (CD25)” value [2] was “no effect” and the “cellular GSH content” value [3] was “Significant reductions”.

For `O=C(CCl)N1N=C(c2ccco2)CC1c1cc2ccccc2o1` (stereo not drawn) [compound 60], the IC50 [4] was 2.6 µM, the “catalytic activity of MLTK (substrate phosphorylation)” value [5] was “blocked the catalytic activity” and the “inhibitory effect on C22A-MLTK mutant” value [6] was “not observed”.

From patent publication US10670605B2, “Cysteine reactive probes and uses thereof” (The Scripps Research Institute, priority 2015, dated 2020)
